Measurements taken from patent USRE48267E1, “Variants of C-type natriuretic peptide” (priority 2009, dated 2020).
pKd: −log10 of the molar value. Marks after values point to notes of the source that are not given here. Where a SMILES comes first, the peptide text is derived from it. Bridges are numbered along the chain shown (N, C = ends). The star is where a group is joined. CH3O(CH2CH2O)11CH2CH2CO = COCCOCCOCCOCCOCCOCCOCCOCCOCCOCCOCCOCCC(=O)*

Tests used:
wild-type FVB mice = assay: efficacy of CNP variants on bone growth in wild-type mice; assay type: in vivo, mouse; details: 200 nmol/kg s.c. once daily for 5 weeks
Description: The in vivo effects of CNP variants on bone growth were assessed in wild-type mice. Three week old FVB wild-type male mice received daily subcutaneous (s.c.) injection of either vehicle, G-CNP37 (200 nmol/kg) or […]”) (SEQ ID NO: 36) (200 nmol/kg) for 5 weeks. Body weight was measured at least once weekly. Tail length was measured at least once weekly using digital caliper readings, and body length (naso-anal length), bone length (tibia, femur, ulna and humerus), skull length (anterior to posterior cranial segment) and lumbar vertebrae 5 (LV5) length were measured after 5 weeks of treatment using a caliper. X-rays were taken at baseline and after 5 weeks of treatment. […] In another study, various dosing regimens of Pro-Gly-CNP37 were administered for nine weeks followed by one week of recovery. Wild-type FVB mice were dosed s.c. with: • (1) vehicle daily for nine weeks, followed by one week of recovery; • (2) 20 nmol/kg Pro -Gly-CNP37 daily for one week, followed by three doses per week for eight weeks and one week of recovery; • (3) 20 nmol/kg Pro-Gly-CNP37 on alternating weeks; or • (4) 5 nmol/kg Pro-Gly-CNP37 daily for nine weeks followed by one week of recovery.

Recombinant human NEP = Recombinant human NEP (Homo sapiens, UniProt P08473); assay: in vitro NEP cleavage assay (disappearance of non-cleaved CNP variant)
Chain of Recombinant human NEP (P08473 whole entry): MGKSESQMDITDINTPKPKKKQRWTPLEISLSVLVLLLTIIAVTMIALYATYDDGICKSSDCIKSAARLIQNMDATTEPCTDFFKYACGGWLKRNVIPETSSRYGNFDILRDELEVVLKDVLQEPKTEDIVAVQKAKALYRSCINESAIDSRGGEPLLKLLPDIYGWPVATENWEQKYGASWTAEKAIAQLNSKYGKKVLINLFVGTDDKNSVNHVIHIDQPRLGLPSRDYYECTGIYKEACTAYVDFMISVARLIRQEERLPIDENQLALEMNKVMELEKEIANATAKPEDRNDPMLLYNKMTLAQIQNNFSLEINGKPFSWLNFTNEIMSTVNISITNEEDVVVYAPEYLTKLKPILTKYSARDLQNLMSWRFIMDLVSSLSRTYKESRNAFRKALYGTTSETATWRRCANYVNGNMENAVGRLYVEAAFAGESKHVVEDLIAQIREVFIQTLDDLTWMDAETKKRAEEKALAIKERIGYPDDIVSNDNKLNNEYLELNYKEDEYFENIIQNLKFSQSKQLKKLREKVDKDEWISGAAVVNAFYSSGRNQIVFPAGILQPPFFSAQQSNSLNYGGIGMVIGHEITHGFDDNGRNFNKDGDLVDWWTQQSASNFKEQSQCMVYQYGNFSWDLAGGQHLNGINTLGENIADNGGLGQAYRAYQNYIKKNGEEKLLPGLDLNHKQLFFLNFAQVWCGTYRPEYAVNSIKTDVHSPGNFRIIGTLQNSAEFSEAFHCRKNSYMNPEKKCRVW
Method in brief: (§1)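 Recombinant human NEP (1 ug/mL final) incubated with 100 uM CNP variant in 0.1 M Tris, pH 7, at 37° C for various times, then quenched with EDTA (10 mM final) and heat. Samples reduced and analysed by HPLC and mass spectrometry. Half-life derived from loss of intact variant over time.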

[1] = IgG assay (immunogenicity) in mice
Description: An IgG assay was performed to assess whether an IgG immune response was triggered by 5 week exposure of achondroplastic FGFR3^ach mice to CNP22, CNP37 or PEO24-GANRR-CNP22(K4R) (“CNP27-PEO24”) (SEQ ID NO: 36). IgG is the most predominant immunoglobulin in mouse and human serum and is produced as part of the secondary immune response to an antigen. The IgG response to administration of the CNP peptides was determined as follows. 96-well plates were coated with 100 ng/mL CNP22, CNP37 or PEO24-GANRR-CNP22(K4R) (SEQ ID NO: 36) in BupH PBS buffer (Pierce/Thermo, Cat. No. 28372, Rockford, Ill.). After overnight incubation, plates were blocked with Casein-PBS blocking buffer (Pierce/Thermo, Cat. No. 37528) for two hours at room temperature with shaking at 300 rpm. After washing with wash buffer (1×PBS with 0.05% Tween), diluted serum samples from a terminal bleed (diluted 1:25) were added to the plate. Positive and negative controls were also loaded onto the plate. Positive control was 1:25 diluted serum (pooled from 6 individual FVB mice) with anti-CNP22 antibody added (Bachem rabbit anti-CNP22 IgG, Cat. No. T-4222) at 1:1000 dilution. Negative control was the diluted pooled serum. After two hours of incubation, the plates were washed and secondary antibody diluted in blocking buffer was added to the wells. For the mouse serum samples, anti-mouse IgG Fcγ (peroxidase-conjugated affinipure goat anti-mouse IgG, Fcγ fragment, Cat. No. 115-035-071, Jackson Immunoresearch, West Grove, Pa.) was added at a 1:10,000 dilution. For the positive and negative controls, anti-rabbit IgG-HRP (Santa Cruz Biotechnology, Cat. No. SC-2004, Santa Cruz, Calif.) was added to blocking buffer. After two hours of incubation at room temperature with shaking at 300 rpm, plates were washed with wash buffer. 100 uL of TMB (One-step TMB, Pierce/Thermo, Cat. No. 34022) was added to all wells. Plates were incubated at room temperature for 15 minutes with shaking at 300 rpm. Colorimetric reactions were stopped by the addition of 100 uL of 2 N H2SO4. Plates were read at 450 nm (Spectramax, Molecular Devices, Sunnyvale, Calif.) and data was analyzed using SoftMax Pro software (Molecular Devices).
The immunogenic response of wild-type mice administered G-CNP37, PEO12-GANRR-CNP22(K4R) (SEQ ID NO: 36) or Pro-Gly-CNP37, as measured by an increase in serum IgG level, was also assessed by examining terminal bleed serum samples as described above.

NPR-B = NPR-B (Homo sapiens, UniProt P20594); details: read-out: affinity to NPR-B; cited from earlier work
Chain of NPR-B (P20594 23-1047, species assumed): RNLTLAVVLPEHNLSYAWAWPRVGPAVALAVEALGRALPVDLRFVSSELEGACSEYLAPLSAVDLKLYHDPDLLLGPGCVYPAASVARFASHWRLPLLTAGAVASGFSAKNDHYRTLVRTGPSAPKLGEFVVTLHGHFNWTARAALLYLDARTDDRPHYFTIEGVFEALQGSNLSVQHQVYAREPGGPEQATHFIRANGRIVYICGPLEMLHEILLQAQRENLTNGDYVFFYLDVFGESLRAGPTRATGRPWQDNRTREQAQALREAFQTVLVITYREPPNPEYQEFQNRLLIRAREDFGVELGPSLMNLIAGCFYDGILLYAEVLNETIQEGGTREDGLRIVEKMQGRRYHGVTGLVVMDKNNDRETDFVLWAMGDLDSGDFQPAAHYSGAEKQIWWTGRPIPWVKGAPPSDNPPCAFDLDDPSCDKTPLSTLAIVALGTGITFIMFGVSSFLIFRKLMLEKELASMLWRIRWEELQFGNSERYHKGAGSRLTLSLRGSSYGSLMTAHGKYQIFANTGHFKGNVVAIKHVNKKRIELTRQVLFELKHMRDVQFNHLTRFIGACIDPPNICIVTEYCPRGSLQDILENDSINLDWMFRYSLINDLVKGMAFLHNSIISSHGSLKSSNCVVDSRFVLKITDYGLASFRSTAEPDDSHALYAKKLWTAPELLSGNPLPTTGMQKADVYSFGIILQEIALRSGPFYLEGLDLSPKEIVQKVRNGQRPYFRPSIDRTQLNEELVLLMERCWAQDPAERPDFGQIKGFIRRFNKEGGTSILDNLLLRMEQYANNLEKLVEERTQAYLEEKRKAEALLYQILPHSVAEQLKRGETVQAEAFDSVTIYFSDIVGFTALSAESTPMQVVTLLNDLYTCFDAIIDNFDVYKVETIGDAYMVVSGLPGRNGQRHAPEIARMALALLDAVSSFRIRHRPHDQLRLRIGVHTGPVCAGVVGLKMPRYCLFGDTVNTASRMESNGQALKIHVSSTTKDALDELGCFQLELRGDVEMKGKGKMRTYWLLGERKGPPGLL

NPR-C = NPR-C (Homo sapiens, UniProt P17342); details: read-out: affinity to NPR-C; cited from earlier work
Chain of NPR-C (P17342 27-541, species assumed): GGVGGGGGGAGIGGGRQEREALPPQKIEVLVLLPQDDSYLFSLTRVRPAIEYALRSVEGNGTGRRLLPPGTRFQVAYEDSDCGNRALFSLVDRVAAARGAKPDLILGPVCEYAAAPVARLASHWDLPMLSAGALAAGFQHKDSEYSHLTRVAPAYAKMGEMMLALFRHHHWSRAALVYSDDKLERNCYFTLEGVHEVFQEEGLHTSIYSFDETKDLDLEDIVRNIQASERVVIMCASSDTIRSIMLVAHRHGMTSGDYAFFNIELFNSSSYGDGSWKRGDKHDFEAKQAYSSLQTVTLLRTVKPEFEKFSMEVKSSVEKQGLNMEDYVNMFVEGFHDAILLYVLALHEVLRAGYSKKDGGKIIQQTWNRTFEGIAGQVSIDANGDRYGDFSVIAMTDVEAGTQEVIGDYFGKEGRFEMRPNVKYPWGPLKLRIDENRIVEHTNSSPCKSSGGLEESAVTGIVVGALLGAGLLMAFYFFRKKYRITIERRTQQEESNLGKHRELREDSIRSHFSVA

[2] = normal human; cited from earlier work
[3] = pharmacokinetics in rats (plasma CNP immunoreactivity by RIA); assay type: in vivo, rat
Description: Recombinant wild-type CNP22, CNP37 and PEO24-GANRR-CNP22 […]) (SEQ ID NO: 36) were evaluated. […] Standard and QC samples were prepared. […] Plasma CNP immunoreactivity was employed for pharmacokinetics (PK) analysis. PK analysis was performed using WINNONLIN® Professional (Pharsight Corporation).

[4] = target: NPR-B (natriuretic peptide receptor B), murine, expressed endogenously on NIH3T3 cells (murine) (UniProt Q6VVW5); assay: cell-based or functional assay
Chain of NPR-B (natriuretic peptide receptor B), murine, expressed endogenously on NIH3T3 cells (murine) (Q6VVW5 17-1047): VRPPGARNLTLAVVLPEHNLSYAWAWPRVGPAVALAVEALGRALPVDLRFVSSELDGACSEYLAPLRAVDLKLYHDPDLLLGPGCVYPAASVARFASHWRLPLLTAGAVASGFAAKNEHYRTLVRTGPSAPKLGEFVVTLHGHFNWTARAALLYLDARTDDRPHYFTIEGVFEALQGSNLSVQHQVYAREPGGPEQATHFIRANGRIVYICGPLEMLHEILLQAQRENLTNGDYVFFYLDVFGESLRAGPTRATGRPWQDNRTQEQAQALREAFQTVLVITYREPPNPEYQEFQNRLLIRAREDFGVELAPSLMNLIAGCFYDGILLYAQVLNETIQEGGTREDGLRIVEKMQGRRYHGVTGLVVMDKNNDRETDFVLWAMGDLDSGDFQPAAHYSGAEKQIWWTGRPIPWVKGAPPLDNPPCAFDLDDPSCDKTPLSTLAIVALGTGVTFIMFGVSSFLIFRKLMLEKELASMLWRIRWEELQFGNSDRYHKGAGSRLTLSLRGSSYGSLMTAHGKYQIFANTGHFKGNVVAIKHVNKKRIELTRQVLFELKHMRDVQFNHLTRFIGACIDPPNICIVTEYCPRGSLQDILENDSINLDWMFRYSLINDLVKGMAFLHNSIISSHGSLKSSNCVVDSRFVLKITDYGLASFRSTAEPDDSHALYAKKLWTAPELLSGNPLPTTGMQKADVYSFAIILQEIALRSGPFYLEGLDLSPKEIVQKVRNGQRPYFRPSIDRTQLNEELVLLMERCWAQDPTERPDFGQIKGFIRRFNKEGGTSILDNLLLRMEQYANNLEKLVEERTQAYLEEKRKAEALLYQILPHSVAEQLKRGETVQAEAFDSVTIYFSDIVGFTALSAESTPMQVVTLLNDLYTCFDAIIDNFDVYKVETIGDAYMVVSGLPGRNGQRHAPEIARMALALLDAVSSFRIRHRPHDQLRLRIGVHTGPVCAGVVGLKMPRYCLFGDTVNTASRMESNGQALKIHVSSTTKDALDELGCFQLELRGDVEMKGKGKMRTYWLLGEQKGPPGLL

[5] = target: neutral endopeptidase (NEP) (Homo sapiens, UniProt P08473); assay: in vitro; details: human, pH 7
Chain of neutral endopeptidase (NEP) (P08473 whole entry): as the sequence (P08473 whole entry) above
Method in brief: as §1

CC[C@H](C)[C@@H]1NC(=O)[C@H](CCCNC(=N)N)NC(=O)[C@H](CC(=O)O)NC(=O)[C@H](CC(C)C)NC(=O)[C@H](CCCCN)NC(=O)[C@H](CC(C)C)NC(=O)CNC(=O)[C@H](Cc2ccccc2)NC(=O)[C@@H](NC(=O)CNC(=O)[C@H](CCCNC(=N)N)NC(=O)[C@H](CO)NC(=O)[C@H](CC(C)C)NC(=O)CNC(=O)[C@H](CCCNC(=N)N)NC(=O)[C@H](CCCNC(=N)N)NC(=O)[C@H](CC(N)=O)NC(=O)[C@H](C)NC(=O)CNC(=O)CCOCCOCCOCCOCCOCCOCCOCCOCCOCCOCCOCCOC)CSSC[C@@H](C(=O)O)NC(=O)CNC(=O)[C@H](CC(C)C)NC(=O)CNC(=O)[C@H](CO)NC(=O)[C@H](CCSC)NC(=O)[C@H](CO)NC(=O)CNC1=O [PEO12-GANRR-CNP22(K4R)] ({CH3O(CH2CH2O)11CH2CH2CO}-GANRRGLSRGCFGLKLDRIGSMSGLGC-OH; disulfide 11-27; C-terminus assumed)
Anterior to Posterior (Skull) length, relative to vehicle = 100% (wild-type FVB mice): 101%
Femur length, relative to vehicle = 100% (wild-type FVB mice): 102%*
Humerus length, relative to vehicle = 100% (wild-type FVB mice): 102%*
LV5 length, relative to vehicle = 100% (wild-type FVB mice): 103%
Naso-Anal (body) length, relative to vehicle = 100% (wild-type FVB mice): 104%**
Tail length, relative to vehicle = 100% (wild-type FVB mice): 101%
Tibia length, relative to vehicle = 100% (wild-type FVB mice): 100%
Ulna length, relative to vehicle = 100% (wild-type FVB mice): 96%*
resistance to NEP cleavage (in words) (Recombinant human NEP): much greater stability to NEP degradation compared to wtCNP22
IgG immune response ([1]; mouse, in vivo): None of the wild-type mice

CC[C@H](C)[C@@H]1NC(=O)[C@H](CCCNC(=N)N)NC(=O)[C@H](CC(=O)O)NC(=O)[C@H](CC(C)C)NC(=O)[C@H](CCCCN)NC(=O)[C@H](CC(C)C)NC(=O)CNC(=O)[C@H](Cc2ccccc2)NC(=O)[C@@H](NC(=O)CNC(=O)[C@H](CCCCN)NC(=O)[C@H](CO)NC(=O)[C@H](CC(C)C)NC(=O)CN)CSSC[C@@H](C(=O)O)NC(=O)CNC(=O)[C@H](CC(C)C)NC(=O)CNC(=O)[C@H](CO)NC(=O)[C@H](CCSC)NC(=O)[C@H](CO)NC(=O)CNC1=O [CNP22, reference compound]
pKd (NPR-B): 10.52 to 11.15
pKd (NPR-C): 9.85 to 10.96
NEP Cleavage (t1/2, min) (Recombinant human NEP; 100 uM peptide, 1 ug/mL NEP, 0.1 M Tris pH 7, 37° C., adjusted t1/2, CNP22 normalized to 80 min): 80 min
in vivo (plasma) half-life [2]: 2.6 min
IgG immune response ([1]; FGFR3^ach mice, 5 week exposure, 200 nmol/kg): no positive IgG immune response in any of the mice
area under the curve, AUC (pmol·min/mL) ([3]; i.v. 20 nmol/kg): 320 (±54) pmol·min/mL
bioavailability ([3]; s.c. 50 nmol/kg): 19%

ANP (atrial natriuretic peptide) (from UniProt P01160 124-151)
cGMP response rel. to 1 uM CNP22; 10 nM peptide, NIH3T3 cells (rel. to 1 uM CNP22 (100)) [4]: 10
cGMP response rel. to 1 uM CNP22; 1 uM peptide, NIH3T3 cells (rel. to 1 uM CNP22 (100)) [4]: 23

CC[C@H](C)[C@@H]1NC(=O)[C@H](CCCNC(=N)N)NC(=O)[C@H](CC(=O)O)NC(=O)[C@H](CC(C)C)NC(=O)[C@H](CCCCN)NC(=O)[C@H](CC(C)C)NC(=O)CNC(=O)[C@H](Cc2ccccc2)NC(=O)[C@@H](NC(=O)CNC(=O)[C@H](CCCCN)NC(=O)[C@H](CO)NC(=O)[C@H](CC(C)C)NC(=O)CNC(=O)[C@H](CCCCN)NC(=O)[C@H](CCCCN)NC(=O)[C@H](CC(N)=O)NC(=O)[C@H](C)NC(=O)CNC(=O)[C@H](CCCCN)NC(=O)[C@H](Cc2ccc(O)cc2)NC(=O)[C@H](CCCCN)NC(=O)[C@H](CCCNC(=N)N)NC(=O)[C@H](C)NC(=O)[C@H](CC(N)=O)NC(=O)[C@@H]2CCCN2C(=O)[C@H](Cc2c[nH]cn2)NC(=O)[C@H](CCC(=O)O)NC(=O)[C@H](CCC(N)=O)NC(=O)CN)CSSC[C@@H](C(=O)O)NC(=O)CNC(=O)[C@H](CC(C)C)NC(=O)CNC(=O)[C@H](CO)NC(=O)[C@H](CCSC)NC(=O)[C@H](CO)NC(=O)CNC1=O [Analog DB]
resistance to NEP cleavage (in words) (Recombinant human NEP): completely resistant to NEP cleavage
half-life at 100 uM [5]: > 2.67 h
IgG immune response ([1]; mouse, in vivo): one out of six
